# Patent publication US20220323594A1, “LIPIDATED CATIONIC PEPTIDE-PEG COMPOSITIONS FOR NUCLEIC ACID DELIVERY” (NUTCRACKER THERAPEUTICS, INC., priority 2019, published 2022)
# How the values were obtained:
# [1] = Dynamic light scattering (DLS) of mRNA/peptoid formulations: particle size and polydispersity; type: physicochemical; settings: Fluc mRNA/peptoid formulation; for Size PDI: size polydispersity index by DLS, 5:1 mass ratio; for Size (nm): volume average particle size/diameter by DLS, 5:1 mass ratio peptoid:cargo
# Experimental: (§1) To prepare nanoparticle formulations, the amino lipidated peptoid is mixed by pipetting with nucleic acid at a mass ratio between approximately 1:1 (peptoid:cargo) and 20:1. Prior to formulation, amino lipidated peptoid and nucleic acid cargo were diluted in ethanol and acidic buffer (PBS adjusted to pH 5.5 with 0.1 M HCl) respectively to a volume ratio of 1:3 and to target a final cargo concentration of approximately 0.05 mg/mL to 0.2 mg/mL. The exemplary amino lipidated cationic peptoids described in Example 2 were combined with firefly luciferase (Fluc) mRNA to form nanoparticle compositions to be evaluated for therapeutic and/or prophylactic purposes in vitro or in vivo. The formulations were prepared according to the protocol of Example 3 and mixed by simple pipetting. The mRNA/peptoid formulation at a 5:1 mass ratio of peptoid:cargo were evaluated by dynamic light scattering (DLS) in order to determine the volume average particle size/diameter (nm) of the mRNA/peptoid complex and the size polydispersity index (PDI) within the formulation. The percentage of mRNA encapsulation for each formulation of the exemplary compounds were determined by fluorescence of the Qubit RNA HS (Invitrogen) dye before and after lysis of particles by Triton X-100.
# [2] = mRNA encapsulation by fluorescence of Qubit RNA HS dye before and after lysis with Triton X-100; type: physicochemical; settings: percentage of mRNA encapsulation; Fluc mRNA/peptoid formulation, 5:1 mass ratio
# Experimental: as §1, with “The” for “To prepare nanoparticle formulations, the amino lipidated peptoid is mixed by pipetting with nucleic acid at a mass ratio between approximately 1:1 (peptoid:cargo) and 20:1. Prior to formulation, amino lipidated peptoid and nucleic acid cargo were diluted in ethanol and acidic buffer (PBS adjusted to pH 5.5 with 0.1 M HCl) respectively to a volume ratio of 1:3 and to target a final cargo concentration of approximately 0.05 mg/mL to 0.2 mg/mL. The”
# [3] = tested on: HeLa cells; test: In vitro expression of firefly luciferase (Fluc) after treatment with Fluc mRNA/amino lipidated peptoid formulations, no PEG or 2% DMG-PEG2000; type: cell-based
# Experimental: The efficacy of mRNA/amino lipidated peptoid formulations was evaluated in vitro based on their ability to deliver the firefly luciferase (Fluc) reporter gene to cultured cells. Amino lipidated peptoids were combined with Fluc mRNA at a 5:1 w/w ratio, and the resulting particles were added to cultured HeLa cells at a dose of 100 ng/well (in 100 μL total volume). The resulting luciferase expression (RLU) was measured by a luminescence plate reader after 6 hours and 24 hours of treatment. […] In addition to evaluating nanoparticle complexes formed between mRNA cargos and amino lipidated peptoids alone, multicomponent formulations containing a small amount of PEG-lipid DMG-PEG2000 were also tested for in vitro Fluc mRNA delivery. In these formulations, DMG-PEG2000 was pre-mixed with candidate peptoid at an overall 2% incorporation (w/w), while maintaining the same 5:1 mass ratio of peptoid:mRNA used previously.
# [4] = tested on: HeLa cells; test: In vitro Fluc expression with variable peptoid:mRNA mass ratio, 2% DMG-PEG2000; type: cell-based; settings: 24 h; for Observed Luciferase Expression (RLU) for Given Formulation Mass Ratio 2:1: 2% (w/w) DMG-PEG2000, peptoid:mRNA 2:1; for Observed Luciferase Expression (RLU) for Given Formulation Mass Ratio 3.5:1: 2% (w/w) DMG-PEG2000, peptoid:mRNA 3.5:1; for Observed Luciferase Expression (RLU) for Given Formulation Mass Ratio 5:1: 2% (w/w) DMG-PEG2000, peptoid:mRNA 5:1; for Observed Luciferase Expression (RLU) for Given Formulation Mass Ratio 7.5:1: 2% (w/w) DMG-PEG2000, peptoid:mRNA 7.5:1
# Experimental: The charge ratio dependence of amino lipidated peptoid delivery vehicles was evaluated by formulating particles between Fluc mRNA and delivery vehicles at varying mass ratios. Formulations were varied between 2:1 and 7.5:1 peptoid:mRNA (w/w) ratios (2:1, 3.5:1, 5:1 and 7.5:1). In addition, the role of DMG-PEG2000 was also explored with the mass ratios, either by excluding DMG-PEG2000 or incorporating DMG-PEG2000 at 2% (w/w) relative to amino lipidated peptoid. Fluc expression from these formulations was measured in HeLa cells following treatment for 24 hours. […] FIGS. 6B and 6C show plots of the average bioluminescence (RLU) for HeLa cells treated with the formulations of exemplary amino lipidated cationic peptoid compounds 1-36, all formulated with 2% w/w DMG-PEG2000.
# [5] = MTT viability assay after treatment with Fluc mRNA/amino lipidated peptoid formulations; type: cell-based; settings: human, HeLa cells
# Experimental: Cellular viability was measured following treatment with Fluc mRNA/amino lipidated peptoid formulations by a traditional MTT viability assay. […] In this assay, cells were first treated with peptoid formulations at a final mRNA concentration of 100 ng/well for 8 hours. Cells were then left to grow for 48 hours, after which time they were exposed to 1.5 mg/mL 3-(4,5-dimethylthiazol-2-yl)-2,5-diphenyltetrazolium bromide (MTT) for 2 hours, then lysed using a solubilizing solution of 10% Triton-X 100 in acidic isopropanol (0.1N HCl). The signal corresponding to reduced formazan was normalized to untreated cells to provide a relative viability of each treated condition. […] In general, nearly all conditions maintained at least 80% viability with the only exceptions being formulations of compound 5, 34, and 35.
# [6] = no PEG, peptoid:Fluc mRNA 5:1 w/w, 100 ng/well, 6 h of treatment
# [7] = no PEG, peptoid:Fluc mRNA 5:1 w/w, 100 ng/well, 24 h of treatment
# [8] = with 2% (w/w) DMG-PEG2000, peptoid:mRNA 5:1, 6 h after treatment
# [9] = with 2% (w/w) DMG-PEG2000, peptoid:mRNA 5:1, 24 h after treatment
Structure (SMILES),Size PDI [1],Size (nm) [1],% Encapsulation [2],"Luciferase Expression (RLU) 6 h [3, 6]","Luciferase Expression (RLU) 24 h [3, 7]","Luciferase Expression (RLU) 6 h [3, 8]","Luciferase Expression (RLU) 24 h [3, 9]",Observed Luciferase Expression (RLU) for Given Formulation Mass Ratio 2:1 [4],Observed Luciferase Expression (RLU) for Given Formulation Mass Ratio 3.5:1 [4],Observed Luciferase Expression (RLU) for Given Formulation Mass Ratio 5:1 [4],Observed Luciferase Expression (RLU) for Given Formulation Mass Ratio 7.5:1 [4],"viability at 8 h, 500 ng/well ([5]; Relative Viability (%) 2% PEG)","viability at 8 h, 500 ng/well ([5]; Relative Viability (%) No PEG)"
CCCCCCCCCCN(CC(N)=O)C(=O)CN(CCCCCCCCCC)C(=O)CN(CCc1ccccc1)C(=O)CN(CCc1ccccc1)C(=O)CNCCN [Compound 9],0.122,367.9 nm,73.9%,1.52E+02 RLU,8.57E+01 RLU,1.38E+02 RLU,3.33E+01 RLU,2.28E+02 RLU,3.67E+02 RLU,9.91E+02 RLU,1.82E+02 RLU,107%,99.3%
CCCCCCCCCCN(CC(N)=O)C(=O)CN(CCCCCCCCCC)C(=O)CN(CCc1ccccc1)C(=O)CN(CCc1ccccc1)C(=O)CN(CCN)C(=O)CN(CCc1ccccc1)C(=O)CN(CCc1ccccc1)C(=O)CN(CCN)C(=O)CN(CCc1ccccc1)C(=O)CN(CCc1ccccc1)C(=O)CN(CCN)C(=O)CN(CCc1ccccc1)C(=O)CN(CCc1ccccc1)C(=O)CNCCN [Compound 11],0.038,354.9 nm,87.8%,1.15E+03 RLU,1.22E+03 RLU,3.90E+02 RLU,5.23E+02 RLU,2.79E+04 RLU,3.14E+04 RLU,4.48E+04 RLU,4.36E+03 RLU,104%,104%
CCCCCCCCCCN(CC(N)=O)C(=O)CN(CCCCCCCCCC)C(=O)CN(CCc1ccccc1)C(=O)CN(CCN)C(=O)CN(CCc1ccccc1)C(=O)CN(CCN)C(=O)CN(CCc1ccccc1)C(=O)CNCCN [Compound 13],0.447,822.6 nm,90.4%,3.67E+00 RLU,9.67E+00 RLU,3.27E+01 RLU,2.67E+00 RLU,2.68E+01 RLU,1.74E+01 RLU,1.39E+02 RLU,5.36E+00 RLU,85.9%,90.2%
CCCCCCCCCCN(CC(N)=O)C(=O)CN(CCCCCCCCCC)C(=O)CN(CCN)C(=O)CN(CCN)C(=O)CN(CCN)C(=O)CN(CCN)C(=O)CNCCN [Compound 15],1,1064 nm,76.9%,3.93E+01 RLU,1.90E+01 RLU,5.33E+00 RLU,5.33E+00 RLU,8.85E+01 RLU,3.62E+01 RLU,2.01E+01 RLU,6.70E+00 RLU,91.9%,91.2%
CCCCCCCCCCN(CC(N)=O)C(=O)CN(CCCCCCCCCC)C(=O)CN(CCN)C(=O)CN(CCN)C(=O)CN(CCN)C(=O)CN(CCN)C(=O)CN(CCN)C(=O)CN(CCN)C(=O)CN(CCN)C(=O)CN(CCN)C(=O)CNCCN [Compound 16],1,1486 nm,85.4%,7.33E+00 RLU,1.67E+01 RLU,2.63E+01 RLU,5.00E+00 RLU,1.01E+02 RLU,4.16E+01 RLU,2.55E+01 RLU,1.47E+01 RLU,90.8%,89.4%
CCCCCCCCCCN(CC(=O)N(CCN)CC(=O)N(CCc1ccccc1)CC(=O)N(CCc1ccccc1)CC(=O)N(CCCCCCCCCC)CC(=O)N(CCN)CC(=O)N(CCc1ccccc1)CC(=O)N(CCc1ccccc1)CC(N)=O)C(=O)CN(CCc1ccccc1)C(=O)CN(CCc1ccccc1)C(=O)CNCCN [Compound 17],0.37,472.8 nm,90.3%,6.84E+02 RLU,5.63E+02 RLU,8.67E+01 RLU,1.80E+02 RLU,2.72E+03 RLU,1.56E+03 RLU,1.60E+03 RLU,3.75E+01 RLU,91.7%,88%
CCCCCCCCCCNCC(=O)N(CCN)CC(=O)N(CCc1ccccc1)CC(=O)N(CCc1ccccc1)CC(=O)N(CCN)CC(=O)N(CCc1ccccc1)CC(=O)N(CCc1ccccc1)CC(=O)N(CCN)CC(=O)N(CCc1ccccc1)CC(=O)N(CCc1ccccc1)CC(=O)N(CCCCCCCCCC)CC(N)=O [Compound 18],0.762,593 nm,88.5%,5.74E+02 RLU,8.49E+02 RLU,8.50E+01 RLU,1.22E+02 RLU,1.53E+03 RLU,3.00E+03 RLU,9.99E+02 RLU,2.41E+01 RLU,89.3%,86.1%
